Results as given in PubChem BioAssay AID463203 (Broad Institute, 2010).
Activity calls are given as the source filed them.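 The calls were made as follows: active = more than half of replicate measurements showing over 20% loss of kinase signal relative to plate controls; inconclusive = some but at most half of replicates over 20% loss; inactive = no replicate over 20% signal loss.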

The compounds below were run against Glycogen synthase kinase-3 alpha (Homo sapiens) (UniProt P49840) (assay: concentration-response blocking of human GSK3A – biochemical, luminescence, cell-free homogeneous, retest, dose response (AID 463203)). Details: GSK-3 alpha enzyme, ADP-Glo luminescence, 60 min.
Sequence of Glycogen synthase kinase-3 alpha (Homo sapiens) (P49840 whole entry, looked up): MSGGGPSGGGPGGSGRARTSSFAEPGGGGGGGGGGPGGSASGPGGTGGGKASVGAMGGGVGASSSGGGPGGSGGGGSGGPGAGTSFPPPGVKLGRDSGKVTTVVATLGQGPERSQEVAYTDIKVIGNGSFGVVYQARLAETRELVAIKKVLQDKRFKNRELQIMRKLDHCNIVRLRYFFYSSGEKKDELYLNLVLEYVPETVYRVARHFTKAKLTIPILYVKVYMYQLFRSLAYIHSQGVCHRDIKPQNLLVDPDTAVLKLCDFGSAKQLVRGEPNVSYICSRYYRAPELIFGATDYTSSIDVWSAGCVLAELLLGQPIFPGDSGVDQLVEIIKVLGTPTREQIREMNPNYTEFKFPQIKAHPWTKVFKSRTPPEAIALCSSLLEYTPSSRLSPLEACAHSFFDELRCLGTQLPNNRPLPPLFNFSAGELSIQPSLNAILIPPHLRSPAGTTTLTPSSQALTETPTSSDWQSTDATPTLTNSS
With `COc1ccc2[nH]c(C(=O)O)c(NS(=O)(=O)c3ccc(OC)c(OC)c3)c2c1` the AC50 was 6.63 µM.
In the case of `CC(C)=CC(=O)NCc1c(Cl)cccc1-n1cccc1`, the AC50 is reported as > 30 µM (inactive).
`COc1ccc(Nc2nc(Cl)c(C=O)s2)cc1` was tested, and the AC50 was > 30 µM (inactive).
For `O=S(=O)(O)c1ccc(N=Nc2ccccc2)cc1`, the AC50 was > 30 µM (inactive).
For `C=CCn1cnc2c(c1=O)c1nc3ccccc3nc1n2/N=C/c1cc(OC)c(OC)c(OC)c1`, the AC50 was > 30 µM (inactive).
For `CCOC(=O)c1cc[nH]c1C`, the AC50 was > 30 µM (inactive).
`CCc1cc(C(=O)c2ccc(OC)cc2)c(NC(=O)COCC(=O)O)s1` was tested, and the AC50 was > 30 µM (inactive).
`Cc1cc(NCc2ccco2)n2c(nc3ccccc32)c1C#N` was tested, and the AC50 was > 30 µM (inactive).
`COc1cc(NC(=O)c2cc([N+](=O)[O-])ccc2NC(=O)CNC2CCCCC2C)cc(OC)c1` (stereo unspecified) was tested, and the AC50 was > 30 µM (inactive).
With `COc1ccccc1C(CNc1ccc(S(=O)(=O)N2CCCC2)cc1[N+](=O)[O-])N(C)C` (stereo unspecified) the AC50 was > 30 µM (inactive).
`COC(=O)c1ccc(CSc2nnc(-c3ccncc3)n2Cc2ccccc2)o1` was tested, and the AC50 was > 30 µM (inactive).
With `CCOC(=O)N1CCC(N2CCN(S(=O)(=O)c3ccc([N+](=O)[O-])cc3)CC2)CC1` the AC50 was > 30 µM (inactive).
With `COc1ccc(NC(=O)CNc2cccc(S(=O)(=O)N3CCCCCC3)c2)c([N+](=O)[O-])c1` the AC50 was > 30 µM (inactive).
With `O=C(Nc1ccccc1C(=O)NC1CCCCC1)c1ccccc1` the AC50 was > 30 µM (inactive).
With `CN(C)CCCNS(=O)(=O)c1ccc(-n2nnc3ccccc32)c([N+](=O)[O-])c1` the AC50 was > 30 µM (inactive).
With `N#Cc1c(C#N)c(-c2ccccc2)n(-c2ccc(C(=O)O)cc2)c1N` the AC50 was 14.2 µM.
With `Cc1ccc2c(c1N)C(=O)c1ccccc1C2=O` the AC50 was > 30 µM (inactive).
With `Cc1cccc(OCC(=O)N2CCN(c3nnc(-c4ccccc4)c4ccccc34)CC2)c1` the AC50 was > 30 µM (inactive).
In the case of `CN1/C(=C\C=C2/SC(=S)NC2=O)C(C)(C)c2ccccc21`, the AC50 is reported as 12.7 µM.
In the case of `CC(C)COC(=O)N1CCCC1C(=O)Nc1nccs1` (stereo unspecified), the AC50 is reported as > 30 µM (inactive).
For `CCC(C)[C@H](NC(=O)NCc1ccccc1Cl)C(=O)OC` (stereo partly specified), the AC50 was > 30 µM (inactive).
`O=C(NC(=S)Nc1cccc2c(O)cccc12)c1ccccc1[N+](=O)[O-]` was tested, and the AC50 was > 30 µM (inactive).
With `COc1ccc(Nc2nc(-c3ccccc3)cs2)cc1` the AC50 was > 30 µM (inactive).
Work on `O=c1[nH]c2c(s1)C(c1ccccc1)C1C3CCC(C3)C1S2` (stereo unspecified) yielded an AC50 of 1.98 µM.
`CCc1ccc(NC(=O)N[C@H](C(=O)O)C(C)CC)cc1` (stereo partly specified) was tested, and the AC50 was > 30 µM (inactive).
In the case of `CC1(C)CC(=O)C(CS(=O)(=O)c2ccccc2)=C(O)C1`, the AC50 is reported as > 30 µM (inactive).
With `CSc1nnc([C@@H](N)Cc2c[nH]c3ccccc23)o1` the AC50 was > 30 µM (inactive).
For `Cc1cc(C(=O)CN(Cc2ccc(F)cc2)S(=O)(=O)c2ccc3c(c2)OCCO3)c(C)n1C`, the AC50 was > 30 µM (inactive).
For `NC(=O)CSc1nc(C2CC2)nc2sc3c(c12)CCCC3`, the AC50 was > 30 µM (inactive).
In the case of `CCOc1cccc(-c2c(C(=O)N/N=C/c3sccc3C)nnn2-c2nonc2N)c1`, the AC50 is reported as > 30 µM (inactive).
In the case of `COc1ccc2nc(NC(=O)CSc3nc4ccccc4o3)sc2c1`, the AC50 is reported as 28.8 µM.
For `CCOC(=O)c1sc(NC(=O)C2CC2)cc1C`, the AC50 was > 30 µM (inactive).
With `CCOC(=O)C(CC)Sc1ccc2nnc(-c3cccnc3)n2n1` (stereo unspecified) the AC50 was > 30 µM (inactive).
`C=CCn1c(O)c(C(C)=NCCCn2ccnc2)c(=O)[nH]c1=O` showed an AC50 of 19.4 µM.
With `CC(C)OCCCNc1nc2c([nH]1)c(=O)n(C)c(=O)n2C` the AC50 was > 30 µM (inactive).
With `Cn1cc([N+](=O)[O-])c(C(=O)Nc2cnn(Cc3ccc(F)cc3)c2)n1` the AC50 was > 30 µM (inactive).
With `Cc1cc(C)nc(NC(=O)c2ccc(Br)s2)n1` the AC50 was > 30 µM (inactive).
In the case of `CC(C)OC(=O)c1nnn(-c2nonc2N)c1CN1CCCCCC1`, the AC50 is reported as > 30 µM (inactive).
In the case of `COc1ccc(NC(=O)Nc2ccc(Br)c(C)c2)cc1`, the AC50 is reported as > 30 µM (inactive).
For `c1ccc(-c2nc3ccccc3[nH]2)cc1`, the AC50 was > 30 µM (inactive).
Compound `COc1ccccc1-n1c(O)c(C=NCCCn2ccnc2)c(=O)[nH]c1=O` has an AC50 of 18.1 µM.
